Several values for one entry are separate records, joined by “and”; a condition that tells them apart may be missing. Equal entries are not always repeated.
Columns and labels:
[1] = molecular target: T1, MRGPRX4 + RAMP2 (Homo sapiens, UniProt Q96LA9); experiment: IP1 accumulation, MRGPRX4 coexpressed with RAMP2; format: cell-based; design: key to response to agonist, X4:ramp2.I:2: % IP1: mock-transfected unstimulated = 0%, fully stimulated MRGPRX4 = 100%; key to IP1 Basal / response to agonist, X4:ramp2.I:0.25 / response to agonist, X4:ramp2.I:0.5 / response to agonist, X4:ramp2.I:1: % IP1; unstimulated mock = 0%, fully stimulated MRGPRX4 = 100%; settings: Figure 4c-f, agonist 100µM, MRGPRX4 = 100
T1 construct: expressed in transfected cells; host or cells: HEK293T
T1 sequence (Q96LA9 whole entry): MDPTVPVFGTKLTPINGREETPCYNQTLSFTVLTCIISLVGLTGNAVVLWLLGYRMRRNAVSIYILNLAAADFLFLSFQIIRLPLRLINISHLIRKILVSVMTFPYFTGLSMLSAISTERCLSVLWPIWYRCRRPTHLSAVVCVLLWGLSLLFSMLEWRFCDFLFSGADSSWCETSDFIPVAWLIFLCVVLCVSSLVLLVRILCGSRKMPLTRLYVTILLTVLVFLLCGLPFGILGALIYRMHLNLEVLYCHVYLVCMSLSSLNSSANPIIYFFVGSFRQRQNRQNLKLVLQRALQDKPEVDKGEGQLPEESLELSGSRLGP

[2] = molecular target: T2, MRGPRX4 + RAMP3 (Homo sapiens, UniProt Q96LA9); experiment: IP1 accumulation, MRGPRX4 coexpressed with RAMP3; format: cell-based; design: key: % IP1; unstimulated mock = 0%, fully stimulated MRGPRX4 = 100%; settings: Figure 4c-f; agonist 100µM; X4:ramp3 1:2; MRGPRX4 = 100
T2 construct: expressed in transfected cells; host or cells: HEK293T
T2 sequence (Q96LA9 whole entry): as above

With `C[C@H](CCC(=O)NCCS(=O)(=O)O)[C@H]1CC[C@H]2[C@@H]3CC[C@@H]4C[C@H](O)CC[C@]4(C)[C@H]3C[C@H](O)[C@]12C` [TDCA, Taurodeoxycholic acid] the “response to agonist, X4:ramp2.I:0.25” value ([1]; X4:ramp2 1:0.25) was 76.6313 and 76.3781, the “response to agonist, X4:ramp2.I:0.5” value ([1]; X4:ramp2 1:0.5) was 59.1022 and 61.5718 and the “response to agonist, X4:ramp2.I:1” value ([1]; X4:ramp2 1:1) was 39.1806 and 35.15. The “response to agonist, X4:ramp2.I:2” value ([1]; X4:ramp2 1:2) was 12.332 and 15.0971 and the “response to agonist, X4:ramp3.I:2” value [2] was 51.7108 and 61.6065.
